US4923868A, “8-fluoro and 7,8,10-trifluoro-9-(substituted)-6-oxo-6H-benzo(C)quinolizine-5-carboxyl ic acids” (American Cyanamid Company, priority 1989, dated 1990)
Converted amounts (≈) assume the structure as drawn. Where two headings read alike, the source gives them in different places.

How the values were obtained:
Assay in all cases: In vitro antibacterial spectrum, agar plate dilution (MIC)
Assay type in all cases: cell-based
Escherichia coli = details: 10^4 CFU, 35° C
Description: (§1) The in vitro antimicrobial spectrum of the compounds of the invention were determined by the agar plate dilution method with Mueller-Hinton agar and an inoculum of each test organism of approximately 10^4 colony forming units delivered by the Steers replicating device. The minimal inhibitory concentration (MIC) in mcg/ml is defined as the lowest concentration of test compound that inhibited visible growth after 18 hours incubation at 35° C.

Enterobacter cloacae = details: 18 h, 10^4 CFU, 35° C
Description: as §1

Klebsiella nneumoniae = details: Mueller-Hinton agar, 10^4 CFU, 18 h, 35° C
Description: as §1

Staphylococcus aureus = details: Mueller-Hinton agar, 10^4 CFU, 18 h, 35° C
Description: as §1

Pseudomonas aeruginosa = details: Mueller-Hinton agar, 10^4 CFU, 18 h, 35° C
Description: as §1

Morganella morganii = details: 18 h, 10^4 CFU, 35° C
Description: as §1

Streptococcus faecalis = details: Mueller-Hinton agar, 10^4 CFU, 18 h, 35° C
Description: as §1

Proteus rettgeri = details: Providencia rettgeri; Proteus rettgeri IO 83-21; Mueller-Hinton agar, 10^4 CFU, 18 h, 35° C
Description: as §1

Providencia stuartii = Providencia stuartii CMC 83-3; Mueller-Hinton agar, 10^4 CFU, 18 h, 35° C
Description: as §1

Citrobacter diversus = details: Citrobacter koseri; Citrobacter diversus K 82-24; Mueller-Hinton agar, 10^4 CFU, 18 h, 35° C
Description: as §1

Serratia marcescens = details: 18 h, 10^4 CFU, 35° C
Description: as §1

CN1CCN(c2cc3c(cc2F)c(=O)c(C(=O)O)c2ccccn23)CC1 [Example 6, 8-Fluoro-9-(4-methyl-1-piperazinyl)-6-oxo-6H-benzo[c]quinolizine-5-carboxylic acid] showed an MIC (Escherichia coli; 18 h, Escherichia coli CMC 84-50, Mueller-Hinton agar) of 2 µg/mL (≈ 5.63 µM), an MIC (Escherichia coli; 18 h, Escherichia coli D 21, Mueller-Hinton agar) of 4 µg/mL (≈ 11.3 µM) and an MIC (Escherichia coli; 18 h, Escherichia coli D 22, Mueller-Hinton agar) of 2 µg/mL (≈ 5.63 µM). It also gave an MIC (Escherichia coli; 18 h, Escherichia coli MOR 84-20, Mueller-Hinton agar) of 2 µg/mL (≈ 5.63 µM), an MIC (Escherichia coli; 18 h, Escherichia coli VGH 84-19, Mueller-Hinton agar) of 4 µg/mL (≈ 11.3 µM) and an MIC (Escherichia coli; ATCC25922, 18 h, Escherichia coli ATCC 25922, Mueller-Hinton agar) of 4 µg/mL (≈ 11.3 µM). It also gave an MIC (Enterobacter cloacae; Enterobacter cloacae K 84-10, Mueller-Hinton agar) of 2 µg/mL (≈ 5.63 µM), an MIC (Enterobacter cloacae; Enterobacter cloacae MOR 84-30, Mueller-Hinton agar) of 16 µg/mL (≈ 45 µM) and an MIC (Enterobacter cloacae; Enterobacter cloacae VGH 84-39, Mueller-Hinton agar) of 2 µg/mL (≈ 5.63 µM). The MIC (Klebsiella nneumoniae; Klebsiella nneumoniae IO 83-5) was 8 µg/mL (≈ 22.5 µM), the MIC (Klebsiella nneumoniae; Klebsiella nneumoniae MOR 84-24, read-out: MIC) was 8 µg/mL (≈ 22.5 µM) and the MIC (Klebsiella nneumoniae; Klebsiella oneumoniae CMC 84-31) was 8 µg/mL (≈ 22.5 µM). The MIC (Staphylococcus aureus; ATCC25913, Staphylococcus aureus ATCC 25913, read-out: MIC) was over 16 µg/mL, the MIC (Staphylococcus aureus; Staphylococcus aureus CMC 83-131) was over 16 µg/mL and the MIC (Staphylococcus aureus; Staphylococcus aureus K 82-26) was over 16 µg/mL. For the same molecule, the MIC (Staphylococcus aureus; Staphylococcus aureus VGH 84-47, read-out: MIC) was over 16 µg/mL, the MIC (Pseudomonas aeruginosa; Pseudomonas aeruginosa CMC 83-20) was over 16 µg/mL and the MIC (Pseudomonas aeruginosa; Pseudomonas aeruginosa K 84-16, read-out: MIC) was over 16 µg/mL. For the same molecule, the MIC (Pseudomonas aeruginosa; Pseudomonas aeruginosa VGH 84-3) was over 16 µg/mL, the MIC (Morganella morganii; Morganella morganii CMC 84-38, Mueller-Hinton agar) was 0.5 µg/mL (≈ 1.41 µM) and the MIC (Morganella morganii; Morganella morganii VGH 84-12, Mueller-Hinton agar) was 4 µg/mL (≈ 11.3 µM). The MIC (Morganella morganii; Moroanella morganii MOR 84-45, Mueller-Hinton agar) was 0.5 µg/mL (≈ 1.41 µM), the MIC (Streptococcus faecalis; Enterococcus faecalis, Streptococcus faecalis VCI 85-30, read-out: MIC) was over 16 µg/mL and the MIC (Streptococcus faecalis; Streptococcus faecalis CMC 83-120) was over 16 µg/mL. For the same molecule, the MIC (Streptococcus faecalis; Streptococcus faecalis VGH 84-69) was over 16 µg/mL, the MIC (Proteus rettgeri) was 1 µg/mL (≈ 2.81 µM) and the MIC (Providencia stuartii) was over 16 µg/mL. It also gave an MIC (Citrobacter diversus) of 4 µg/mL (≈ 11.3 µM), an MIC (Serratia marcescens; Serratia marcescens CMC 83-74, Mueller-Hinton agar) of over 16 µg/mL and an MIC (Serratia marcescens; Serratia marcescens IO 83-63, Mueller-Hinton agar) of 4 µg/mL (≈ 11.3 µM). The MIC (Serratia marcescens; Serratia marcescens MOR 84-41, Mueller-Hinton agar) was 2 µg/mL (≈ 5.63 µM).
